Here are results for one molecule from patent US7829728B2, “Diarymethyl and related compounds” (Theravance, Inc., priority 2003, dated 2010).

The structures appear in SMILES notation. Some results are limits rather than exact numbers.

Test [1] addresses T1, M3 muscarinic receptor (hM3) (Homo sapiens, UniProt P20309).
T1 construct: expressed in transfected cells; host or cells: CHO cells, membranes
As to the kind of experiment: Radioligand binding assay for muscarinic receptors (Assay Test Procedure B). The note with it: [3H]-NMS displacement, CHO cell membranes expressing hM3. How it is done:
CHO cell lines stably expressing cloned human hM1, hM2, hM3 and hM4 muscarinic receptor subtypes, respectively, were grown to near confluency in HAM's F-12 media supplemented with 10% FBS and 250 μg/mL Geneticin. The cells were grown in a 5% CO2, 37° C. incubator and lifted with 2 mM EDTA in dPBS. Cells were collected by 5 minute centrifugation at 650×g, and cell pellets were either stored frozen at −80° C. or membranes were prepared immediately for use. For membrane preparation, cell pellets were resuspended in lysis buffer and homogenized with a Polytron PT-2100 tissue disrupter (Kinematica AG; 20 seconds×2 bursts). Crude membranes were centrifuged at 40,000×g for 15 minutes at 4° C. […] The protein concentration of the membrane suspension was determined by the method described in Lowry et al., 1951, Journal of Biochemistry, 193, 265. […]
Radioligand binding assays for cloned human muscarinic receptors were performed in 96-well microtiter plates in a total assay volume of 100 μL. […] Filter plates were rinsed three times with wash buffer (10 mM HEPES) to remove unbound radioactivity. […] The plates were then counted in a PerkinElmer Topcount liquid scintillation counter (PerkinElmer Inc., Wellesley, Mass.). Binding data were analyzed by nonlinear regression analysis with the GraphPad Prism Software package (GraphPad Software, Inc., San Diego, Calif.) using the one-site competition model. […]

Test [2] concerns the target human β2 adrenergic receptor (Homo sapiens, UniProt P07550). The test is described as follows: Whole-cell cAMP Flashplate assay in CHO cell lines heterologously expressing human β2 adrenergic receptor (Assay Test Procedure C). The format is cell-based. More on the design: expressed in transfected cells; host or cells: CHO cells, membranes. The procedure: cAMP assays were performed in a radioimmunoassay format using the Flashplate Adenylyl Cyclase Activation Assay System with [^125I]-cAMP (NEN SMP004, PerkinElmer Life Sciences Inc., Boston, Mass.), according to the manufacturers instructions. For the determination of β receptor agonist potency (EC50), CHO-K1 cell lines stably expressing cloned human β1, β2 or β3 adrenergic receptors were grown to near confluency in HAM's F-12 media supplemented with 10% FBS and Geneticin (250 μg/mL). Cells were rinsed with PBS and detached in dPBS (Dulbecco's Phosphate Buffered Saline, without CaCl2 and MgCl2) containing 2 mM EDTA or Trypsin-EDTA solution (0.05% trypsin/0.53 mM EDTA). After counting cells in Coulter cell counter, cells were pelleted by centrifugation at 1,000 rpm and re-suspended in stimulation buffer containing IBMX (PerkinElmer Kit) pre-warmed to room temperature to a concentration of 1.6×10^6 to 2.8×10^6 cells/mL. About 60,000 to 80,000 cells per well were used in this assay. […] The amount of cAMP produced (pmol/well) was calculated based on the counts observed for the samples and cAMP standards as described in the manufacturer's user manual. Data were analyzed by nonlinear regression analysis with the GraphPad Prism Software package (GraphPad Software, Inc., San Diego, Calif.) with the sigmoidal equation. […]

Sequence of human β2 adrenergic receptor (P07550 whole entry): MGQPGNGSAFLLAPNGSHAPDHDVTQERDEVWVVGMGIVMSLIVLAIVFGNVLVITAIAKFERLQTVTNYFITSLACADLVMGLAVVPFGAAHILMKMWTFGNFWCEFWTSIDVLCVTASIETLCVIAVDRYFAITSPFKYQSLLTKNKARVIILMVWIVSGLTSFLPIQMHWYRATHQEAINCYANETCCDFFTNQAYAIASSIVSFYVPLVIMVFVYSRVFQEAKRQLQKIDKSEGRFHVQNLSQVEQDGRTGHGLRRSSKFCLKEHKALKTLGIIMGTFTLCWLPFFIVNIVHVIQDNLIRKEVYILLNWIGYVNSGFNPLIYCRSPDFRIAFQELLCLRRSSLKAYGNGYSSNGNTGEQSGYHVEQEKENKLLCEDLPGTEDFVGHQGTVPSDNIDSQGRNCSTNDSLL
T1 sequence (P20309 whole entry): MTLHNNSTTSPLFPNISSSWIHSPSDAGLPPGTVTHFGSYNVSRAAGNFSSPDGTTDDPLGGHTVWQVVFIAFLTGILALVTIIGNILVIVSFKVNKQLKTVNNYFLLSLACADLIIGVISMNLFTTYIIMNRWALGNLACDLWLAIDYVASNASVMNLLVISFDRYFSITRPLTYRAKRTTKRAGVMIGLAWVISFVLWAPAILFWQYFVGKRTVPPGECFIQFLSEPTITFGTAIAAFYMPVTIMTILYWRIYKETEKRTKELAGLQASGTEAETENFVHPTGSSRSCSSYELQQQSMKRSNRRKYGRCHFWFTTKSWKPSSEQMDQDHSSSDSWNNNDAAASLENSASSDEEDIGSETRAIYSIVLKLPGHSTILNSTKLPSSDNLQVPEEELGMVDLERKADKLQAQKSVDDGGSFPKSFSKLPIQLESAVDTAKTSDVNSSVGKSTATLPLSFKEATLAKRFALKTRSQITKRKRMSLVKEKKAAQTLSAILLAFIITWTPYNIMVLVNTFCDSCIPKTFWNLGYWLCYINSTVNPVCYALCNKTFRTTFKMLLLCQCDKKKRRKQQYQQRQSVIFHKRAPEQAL

Regarding `NC(=O)C(c1ccccc1)(c1ccccc1)[C@@H]1CCN(CCCCCCCCCNCC(O)c2ccc(O)c3[nH]c(=O)ccc23)C1` (mixture of isomers) [Example 1, 2-((S)-1-{9-[2-Hydroxy-2-(8-hydroxy-2-oxo-1,2-dihydroquinolin-5-yl)ethylamino]-nonyl}pyrrolidin-3-yl)-2,2-diphenylacetamide], the inhibitory constant (Ki) in test [1] was less than 50 nM. Besides, the EC50 in test [2] (cAMP, CHO-K1 cells expressing cloned human β2 receptor) was less than 10 nM. Also, the “ratio of EC50(β1)/EC50(β2)” value in test [2] (receptor subtype selectivity, functional cAMP, human β1 versus β2) is on record as “greater than 10”.

For orientation: Ki means a measure of affinity in units of concentration, obtained from inhibition or displacement. Lower therefore signals higher affinity. As usually defined, the EC50 is the concentration that produces a half-maximal response. Higher therefore signals a less potent agent.
